The target of this assay is T1, YndB (Bacillus subtilis, UniProt O31806).
T1 sequence (O31806 1-144): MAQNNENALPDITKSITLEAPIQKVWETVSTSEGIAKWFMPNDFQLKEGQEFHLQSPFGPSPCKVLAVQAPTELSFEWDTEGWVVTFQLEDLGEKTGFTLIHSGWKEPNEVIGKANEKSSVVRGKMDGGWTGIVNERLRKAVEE
Put plainly: 2D 1H-15N HSQC NMR titration, chemical shift perturbation fit. The assay is classed as binding.

Results on 4 compounds are retold here after article PMC2976784 (Proteins, 2010).

The term Kd denotes the concentration at which binding is half-saturated.

Take `O=c1cc(-c2ccccc2)oc2ccccc12` [flavone]: the Kd stood at 62 ± 9 µM.
On to `O=c1c(O)c(-c2ccccc2)oc2ccccc12` [flavonol], for which the Kd was determined as 86 ± 16 µM.
On to `O=C1CC(c2ccccc2)Oc2ccccc21` (stereo not shown) [flavanone], for which the Kd was 32 ± 3 µM.
The value for `O=C(/C=C/c1ccccc1)c1ccccc1` [trans-chalcone] was less than 1 µM.
